Measured values as given in PubChem BioAssay (NCI).
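1) Cells in 96-well plates. 2) Compound, 48 h, 5 concentrations. 3) Linear interpolation between surrounding doses. 4) Unreached endpoint = highest concentration. GI50 is the concentration that inhibits growth by half. TGI is the concentration that stops growth completely.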

How the values were obtained:
Assay in all cases: growth of human tumour cells (NCI), 48 h
[1] = test system: HCT-116 colon
[2] = test system: IGROV1 ovarian
[3] = test system: NCI/ADR-RES ovarian
[4] = test system: OVCAR-5 ovarian
[5] = test system: OVCAR-8 ovarian
[6] = test system: SW-620 colon
[7] = test system: UACC-62 melanoma
[8] = test system: PC-3 prostate
[9] = test system: T-47D breast
[10] = test system: TK-10 renal

| SMILES | TGI [1] [µM] | TGI [2] [µM] | TGI [3] [µM] | TGI [4] [µM] | TGI [5] [µM] | TGI [6] [µM] | TGI [7] [µM] | TGI [8] [µM] | TGI [9] [µM] | TGI [10] [µM] | GI50 [2] [µM] | GI50 [3] [µM] | GI50 [4] [µM] | GI50 [5] [µM] | GI50 [8] [µM] | GI50 [6] [µM] | GI50 [9] [µM] | GI50 [10] [µM] | GI50 [1] [µM] | GI50 [7] [µM] |
| --- | --- | --- | --- | --- | --- | --- | --- | --- | --- | --- | --- | --- | --- | --- | --- | --- | --- | --- | --- | --- |
| Cc1nc2ccccc2c(=O)n1CC(=O)O | > 100 | > 100 | > 100 | > 100 | > 100 | > 100 | > 100 |  |  |  |  |  |  |  |  |  |  |  |  |  |
| CCOc1ccc2c(ccc(/C=C\c3cc(C)c4cccnc4c3O)[n+]2C)c1 | 25 | 21.1 | > 100 | 16.7 | 38.8 | 28 | 11.4 | 6.14 | 6.2 | 6 |  |  |  |  |  |  |  |  |  |  |
| CC(=O)O[C@H]1CC[C@@]2(C)C(=CC[C@@H]3[C@@H]2CC[C@]2(C)C(=N/O)/C(=C/c4ccc([N+](=O)[O-])cc4)C[C@@H]32)C1 | > 100 | 55.8 | > 100 |  |  | > 100 | 20.5 | > 100 | 2.46 | 55.3 |  |  |  |  |  |  |  |  |  |  |
| CC(C)=CC(=O)OC1C2C(C)C(=O)OC2C(O)C(C)C2C=CC(=O)C21C (stereo unspecified) | 4.69 | 7.48 | 32.5 | 12.9 | 9.59 | 5.29 | 4.64 |  |  |  |  |  |  |  |  |  |  |  |  |  |
| C[C@]12C=CC(=O)C=C1CC[C@@H]1[C@@H]2C(=O)C[C@@]2(C)[C@H]1CC[C@]2(O)C(=O)CO | > 100 | > 100 | > 100 | > 100 | > 100 | > 100 | > 100 | > 100 | > 100 | > 100 |  |  |  |  |  |  |  |  |  |  |
| COc1cc2c3c(n(CCN(C)C)c(=O)c2cc1OC)-c1cc2c(cc1C3=O)OCO2 | 19.3 | > 100 | > 40 | > 100 | > 100 | > 100 |  | > 100 | > 100 | > 100 | 18.6 | 0.315 | > 100 | 1.4 | 31.4 | 2.86 | 27.1 | 46.2 |  |  |
| Cn1cc(C[C@@H](N)C(=O)O)c2ccccc21 | > 100 | > 100 | > 100 | > 100 | > 100 | > 100 | > 100 | > 100 | > 100 | > 100 |  |  |  |  |  |  |  |  |  |  |
| O=C(O)c1cc(=O)[nH]c(=S)[nH]1 | > 100 | > 100 | > 100 | > 100 | > 100 | > 100 | > 100 | > 100 | > 100 | > 100 |  |  |  |  |  |  |  |  |  |  |
| CCN(CC)CCCC(Nc1c2ccc(Cl)cc2nc2ccc(OC)cc12)c1ccc(F)cc1 (stereo unspecified) | 3.48 | 9.06 | 5.75 | 5.6 | 10.4 | 3.65 | 3.25 | 9.22 | 5.66 | 3.58 | 3.15 | 2.38 | 2.04 | 3.27 | 2.7 | 1.79 | 2.15 | 1.81 | 1.84 | 1.71 |
| CN1C2C=C(c3ccccc3)CC1CC2 (stereo unspecified) | > 100 | > 100 |  | > 100 | > 100 | > 100 | > 100 |  |  | > 100 |  |  |  |  |  |  |  |  |  |  |
| COc1c2c(cc3c(CCc4ccccc4)cc(=O)oc13)CCC(C)(C)O2 | > 100 | > 100 |  | > 100 | > 100 | > 100 | > 100 |  |  | > 100 |  |  |  |  |  |  |  |  |  |  |
| CCCCN(CCCC)CCCCNc1c(C)cnc2cc(Cl)ccc12 | 42 |  |  | 39.1 | > 100 | 56.8 |  |  |  | 96 |  |  |  |  |  |  |  |  |  |  |
| Cc1ccc(/C(=C/C=C(C#N)C#N)Sc2cc(Cl)ccc2Cl)cc1 | 5.06 | 32.6 | 7.58 | 19.4 |  | 22.5 | 15.3 |  | 67.5 | 18.7 |  |  |  |  |  |  |  |  |  |  |
